From publication PMC6724510 (Molecular Biology of the Cell, 2019)

Biological target: T1, Spf1p (Saccharomyces cerevisiae, UniProt P39986)
T1 sequence (P39986 1-1215): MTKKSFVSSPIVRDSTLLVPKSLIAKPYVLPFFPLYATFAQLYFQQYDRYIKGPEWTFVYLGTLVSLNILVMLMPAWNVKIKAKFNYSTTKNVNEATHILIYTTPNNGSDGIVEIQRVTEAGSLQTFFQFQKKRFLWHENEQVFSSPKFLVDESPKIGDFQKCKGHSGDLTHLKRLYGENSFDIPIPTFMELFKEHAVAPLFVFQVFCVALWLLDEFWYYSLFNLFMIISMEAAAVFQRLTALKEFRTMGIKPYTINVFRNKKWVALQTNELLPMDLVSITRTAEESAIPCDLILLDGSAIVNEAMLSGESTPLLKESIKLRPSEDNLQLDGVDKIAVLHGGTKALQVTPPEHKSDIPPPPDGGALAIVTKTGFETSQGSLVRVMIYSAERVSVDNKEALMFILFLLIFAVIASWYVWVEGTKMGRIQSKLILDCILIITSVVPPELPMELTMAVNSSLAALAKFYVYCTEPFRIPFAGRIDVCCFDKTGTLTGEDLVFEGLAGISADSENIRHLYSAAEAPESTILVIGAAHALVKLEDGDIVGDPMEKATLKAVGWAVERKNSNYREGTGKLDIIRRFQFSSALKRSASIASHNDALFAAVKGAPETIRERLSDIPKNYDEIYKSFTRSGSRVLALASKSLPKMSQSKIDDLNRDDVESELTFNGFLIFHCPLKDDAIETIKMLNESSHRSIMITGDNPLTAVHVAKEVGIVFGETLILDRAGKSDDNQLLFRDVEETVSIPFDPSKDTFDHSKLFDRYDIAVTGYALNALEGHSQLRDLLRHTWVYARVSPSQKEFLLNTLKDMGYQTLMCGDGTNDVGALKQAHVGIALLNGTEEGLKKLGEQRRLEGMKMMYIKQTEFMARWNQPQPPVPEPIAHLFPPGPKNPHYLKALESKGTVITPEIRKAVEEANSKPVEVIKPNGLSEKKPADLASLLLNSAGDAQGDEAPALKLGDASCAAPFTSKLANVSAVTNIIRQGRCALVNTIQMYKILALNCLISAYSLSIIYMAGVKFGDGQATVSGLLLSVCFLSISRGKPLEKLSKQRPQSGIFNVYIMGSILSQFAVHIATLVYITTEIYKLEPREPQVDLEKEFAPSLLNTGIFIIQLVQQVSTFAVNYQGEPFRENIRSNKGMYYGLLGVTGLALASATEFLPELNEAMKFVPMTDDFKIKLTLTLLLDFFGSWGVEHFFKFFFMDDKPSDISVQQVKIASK
Test: inhibition of ATP hydrolysis by purified Spf1p
Assay type: biochemical

[O]=[V]([OH])([OH])[OH] [vanadate]
Ki: 9.8 ± 2.4 µM
